Assays:
[1] = Unbound fraction in plasma (rapid equilibrium dialysis), rat; type: in vitro ADME; settings: rats plasma, 0.3, 1, 3 μM, RED 5 h, read-out: fu,p
Protocol: (§1) The unbound fractions of IDP-73152 in various matrices were measured according to the manufacturer’s instructions for the rapid equilibrium dialysis (RED) device (ThermoFisher Scientific, Waltham, MA, USA). Briefly, IDP-73152 was added to the plasma or the microsomal/hepatocyte incubation buffer from various species (i.e., mouse, rat, dog, and human for microsomal incubation; rat for hepatocyte incubation) to obtain final concentrations of the compound at 0.3, 1, and 3 μM. After the membrane insert was placed in the RED plate, the solution containing IDP-73152 was added (400 µL) to the sample chamber, and the dialysis buffer (600 μL) was added to the buffer chamber. The RED plate was sealed with parafilm and then incubated at 37 °C in the orbital shaker (Lab Companion, Daejeon, Korea) at 100 rpm for 5 h. After a 50 μL aliquot was aspirated from both the sample and buffer chambers, an equal volume of protein-free buffer or blank medium was replaced in the aspirated sample or buffer to render the matrices compositionally identical. The IDP-73152 concentration in the buffer/sample chambers (i.e., CBuffer Chamber and CSample Chamber) was determined by an assay. Thus, the fraction unbound was defined as:(2) % Fraction unbound=(CBuffer Chamber/CSample Chamber)×100%

in vitro = in vitro ADME; settings: microsomes
Protocol: as §1

[2] = Metabolic stability in liver microsomes, mouse; type: in vitro ADME
Protocol: (§2) In this study, the metabolic stability of IDP-73152 in microsomes from mice, rats, dogs, and humans, as well as rat hepatocytes, was determined. For a microsomal incubation study, the incubation mixtures, containing mouse, rat, dog, or human liver microsomes at a protein concentration of 0.5 mg/mL, 3.3 mM MgCl2, and 1.3 mM NADPH, in a 100 mM potassium phosphate buffer (pH 7.4), were preincubated for 3 min at 37 °C. In parallel, a control incubation mixture (i.e., identical composition to that of the incubation mixture without NADPH) was also prepared for comparison. The reaction was initiated by the addition of a 10 × solution of IDP-73152 (final concentration in mixtures of 1 μM) to the incubation mixtures or the control incubation mixtures. The mixtures were incubated in a shaking water bath (37 °C, 90 rpm). Aliquots (30 μL) were collected at 0, 15, 30, and 45 min from the mixture and the reaction was terminated by the addition of a 4-fold volume of ice-cold acetonitrile to the sample. The mixture was then vortexed for 5 min and centrifuged for 10 min at 10,000× g. The supernatant was collected and stored at -80 °C until the analysis. For the hepatocyte incubation study, rat hepatocytes were freshly prepared using the two-step collagenase perfusion method with slight modifications. After the isolation, cell viability during the preparation process was first determined by a trypan blue exclusion assay prior to the stability study. The preparation was considered adequate for subsequent studies if the viability was greater than 80%. When appropriate, the hepatocytes were resuspended in Williams' media E containing 10% fetal bovine serum, 1% penicillin-streptomycin, and 0.01% insulin-transferrin-selenium (i.e., 10 mg/mL insulin, 5.5 mg/mL transferrin, and 5 mg/mL selenium) at pH 7.4. The reaction was carried out with the hepatocyte suspension prepared at 1 × 10^6 cells/mL (0.5 mL) and initiated by the addition of equal volume of IDP-73152 solution (i.e., final concentration of the compound at 1 μM in 0.5 × 10^6 cells/mL of hepatocytes) to the hepatocyte suspension. […] Assuming first-order disappearance kinetics, the slope k of the logarithmically transformed IDP-73152 concentration in the sample versus time plot was determined by the linear regression analysis of the data. The total intrinsic clearance (CLint,mic, μL/min/mg protein for microsomal incubation study and CLint,hep, μL/min/million cells for hepatocytes incubation study) was then calculated using the following equations:(4) CLint, mic=k×Volume of incubation medium (μL)/Protein in incubation medium (mg) (5) CLint,hep=k×Volume of incubation (μL)/Number of cells in incubation (×10^6) The unbound intrinsic clearance, with respect to the whole liver ([…]), was then estimated for the two cases. […]

[3] = Metabolic stability in liver microsomes, dog; type: in vitro ADME
Protocol: as §2

[4] = Physicochemical properties (Table S3)
[5] = test system: vancomycin-resistant Enterococcus faecium; settings: infected mice, twice-a-day dosing; cited from earlier work

## CC(C)(C)[C@H](NC(=O)[C@H](CC1CCCC1)CN(O)C=O)C(=O)N1CCC(NCc2cc(F)c(F)cc2F)CC1 [IDP-73152]
[1]
  fraction unbound at 5 h: 0.0582 ± 0.005
In vitro; dog
  fraction unbound at 5 h: 0.507 ± 0.04
In vitro; human
  fraction unbound at 5 h: 0.579 ± 0.006
In vitro; mouse
  fraction unbound at 5 h: 0.571 ± 0.023
In vitro; rat
  fraction unbound at 5 h: 0.439 ± 0.043
[2]; mice, from microsomal clearance, well-stirred model
  hepatic ER (extraction ratio): 0.102 ± 0.002
[2]; mice, scaled up to the whole liver from microsomes
  CLu,int,H: 0.539 ± 0.011 L/h
[2]; mouse, liver microsomes, pH 7.4, mice, read-out: CLh calculated from the CLint,mic (converted)
  CLhep predicted at 1 μM: 22.7 mL/min/kg
[2]; mouse, pH 7.4, mice liver microsomes 0.5 mg/mL, 1 μM, read-out: CLint,mic
  microsomal CLint at 1 μM: 80.1 ± 1.7 µL/min/mg
[3]; dog, liver microsomes, pH 7.4, dogs, read-out: CLh calculated from the CLint,mic (converted)
  CLhep predicted at 1 μM: 8.87 mL/min/kg
[3]; dog, pH 7.4, dogs liver microsomes 0.5 mg/mL, 1 μM, read-out: CLint,mic
  microsomal CLint at 1 μM: 62.6 ± 2.4 µL/min/mg
[3]; dogs, from microsomal clearance, well-stirred model
  hepatic ER (extraction ratio): 0.106 ± 0.004
[3]; dogs, scaled up to the whole liver from microsomes
  CLu,int,H: 108 ± 4 L/h
[4]
  logP: -0.52
  pKa: 8.8
[5]
  ED50 (oral dose at which the survival rate was 50%): 13.3 mg/kg

Reference: publication PMC9227536, “Prediction of Pharmacokinetics of IDP-73152 in Humans Using Physiologically-Based Pharmacokinetics” (Pharmaceutics, 2022)
